Results from PubChem BioAssay (NCI).
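Cultured in 96-well plates, cells were exposed to test compound for 48 hours across five concentrations. The concentration for 50% growth inhibition is given as GI50. The concentration for full growth arrest is given as TGI.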

How the values were obtained:
Experiment in all cases: DTP human tumour cell line panel, 48 h
[1] = tested on: TK-10 renal
[2] = tested on: OVCAR-4 ovarian
[3] = tested on: SNB-19 CNS
[4] = tested on: ACHN renal
[5] = tested on: SF-268 CNS
[6] = tested on: UO-31 renal
[7] = tested on: NCI-H226 lung
[8] = tested on: MALME-3M melanoma
[9] = tested on: UACC-257 melanoma
[10] = tested on: SK-MEL-28 melanoma

| Structure (SMILES) | GI50 [1] [µM] | TGI [1] [µM] | GI50 [2] [µM] | TGI [2] [µM] | GI50 [3] [µM] | TGI [3] [µM] | GI50 [4] [µM] | TGI [4] [µM] | GI50 [5] [µM] | TGI [5] [µM] | GI50 [6] [µM] | TGI [6] [µM] | GI50 [7] [µM] | TGI [7] [µM] | GI50 [8] [µM] | TGI [8] [µM] | GI50 [9] [µM] | TGI [9] [µM] | GI50 [10] [µM] | TGI [10] [µM] |
| --- | --- | --- | --- | --- | --- | --- | --- | --- | --- | --- | --- | --- | --- | --- | --- | --- | --- | --- | --- | --- |
| O=S(=O)([O-])c1ccc(N=Cc2ccccc2[O-])cc1.O=S(=O)([O-])c1ccc(N=Cc2ccccc2[O-])cc1.[O]=[U+2]=[O] | 30.7 | 71.7 | > 100 | > 100 | 66.4 | > 100 | > 100 | > 100 | > 100 | > 100 | > 100 | > 100 | > 100 | > 100 | > 100 | > 100 | > 100 | > 100 | > 100 | > 100 |
| Cc1cc([N+](=O)[O-])ccc1Sc1c2ccccc2nc2cc(Cl)ccc12 |  | > 100 |  | > 100 |  | > 100 |  | > 100 |  | 89.5 |  | > 100 |  | > 100 |  | > 100 |  | > 100 |  | > 100 |
| COC(=O)/C(=N\NC(N)=O)C(C(=O)C(=O)Nc1ccccc1OC)c1nc2ccc([N+](=O)[O-])cc2[nH]c1=O (stereo not drawn) |  | > 100 |  | > 100 |  | > 100 |  | > 100 |  | > 100 |  | > 100 |  | > 100 |  | > 100 |  | > 100 |  | > 100 |
| COc1ccc(N=Cc2c(O)ccc3c2oc2cc(Cl)c(O)c(Cl)c23)cc1 | 20.3 | 48.3 | 16.3 | > 100 | 13.9 | 79.8 | 6.22 | 44.4 | 6.68 | 29.6 | 5 | 26.6 | 13.7 | 41.7 | 3.63 | 21.8 | 15.9 | 48.8 | 15.9 | 40.4 |
| COc1ccccc1NC(=O)C1=C(C)NC(C)=C(C(=O)Nc2ccccc2OC)C1C1=CC=COC1 |  | 61.6 |  | > 100 |  | 84.2 |  | > 100 |  | 62.4 |  | > 100 |  | > 100 |  | > 100 |  | 68.3 |  | 74 |
| CC(=O)Nc1ccc(/C=c2\sc3nnc(CCC(=O)Nc4ccccc4Cl)n3c2=O)cc1 |  | > 100 |  | 43 |  | > 100 |  | > 100 |  | 88 |  | > 100 |  | 52.7 |  | > 100 |  | > 10 |  | 56.5 |
| CC12OOC(c3ccccc31)c1c2ccc2ccccc12 (stereo not drawn) |  | 22.3 |  | 2.43 |  | 30.5 |  | 3.51 |  | 28 |  | 23.2 |  | 39.3 |  | 5.79 |  | 26.8 |  | 27 |
| COC(=O)C(=O)C(C(=O)C(=O)Nc1cccc(C(C)=O)c1)c1nc2ccc([N+](=O)[O-])cc2[nH]c1=O (stereo not drawn) |  | > 100 |  | > 100 |  | > 100 |  | > 100 |  | > 100 |  | > 100 |  | > 100 |  | > 100 |  | > 100 |  | > 100 |
| N#Cc1c(NC(=O)NCc2ccccc2)sc2c1CCCC2 | 14.6 | > 100 | 1.78 | > 100 | 0.675 | > 100 | 0.677 | > 100 | 1.82 | > 100 | 0.74 | > 100 | 1.3 | > 41.3 | 0.598 | > 100 | > 71 | > 100 | 6.37 | > 100 |
| CN(C)c1ccc(/C=C/C(=O)[O-])cc1.CN(C)c1ccc(/C=C/C(=O)[O-])cc1.[Cu+2] | > 100 | > 100 | 14.9 | > 100 |  | > 100 |  | > 100 |  | > 100 |  | > 100 |  | > 100 |  | > 100 |  | > 100 | > 69.8 | > 100 |
| O=C(/C=C/c1ccco1)c1cc(F)c(Cl)cc1Cl | 28.4 | 90.1 | 22 | 72.3 | 20 | 48.4 | 20.1 | 45.1 | 20 | 45.5 | 17.1 | 34 | 19.9 | 47.2 | 16.5 | 38.7 | 24.6 | 50.5 | 22.7 | 50.2 |
| CCCCCCCC/C=C/CCCCCCCC1=NC(C)(C)CN1CC(C)O (stereo not drawn) | 2.73 | 7.49 | 3.08 | 11.1 | 5.54 | 17.7 | 1.83 | 3.55 | 1.73 | 3.16 | 1.63 | 4.19 | 6.25 | 23.7 | 1.97 | 4.67 | 1.85 | 3.54 | 1.74 | 3.19 |
| CN(C)c1ccc(/C=C/c2ccnc3c(O)cccc23)cc1 | 1.68 | > 100 | 0.404 | > 100 | 0.395 | > 100 | 0.337 | > 100 | 0.463 | > 100 | 0.247 | > 22.7 | 2.31 | > 26.8 | 0.847 | 9.43 | 0.409 | 3.08 | 0.624 | > 100 |
| CN1CCC(COc2cnc(-c3cccc(Cn4nc(-c5cccc(C#N)c5)ccc4=O)c3)nc2)CC1 | 2.65 | 6.15 | 2 | 5.32 | 4.45 | 25.7 | 2.38 | 5.78 | 3.81 | 16.4 | 2.26 | 5.79 | 7.18 | 24.8 | 1.83 | 3.63 | 1.81 | 3.52 | 1.82 | 3.52 |
| O=C1CC[C@H](N2C(=O)c3cccc4c(Cc5ccc(CN6CCOCC6)cc5)ccc2c34)C(=O)N1 | > 100 | > 100 | 21.9 | > 100 | > 100 | > 100 | 78.6 | > 100 | > 100 | > 100 | 48.7 | > 100 | 11.7 | > 100 | 30 | > 100 | 22.5 | > 100 | 75.1 | > 100 |
| C[C@]12CC[C@@H]3c4cc(OC(F)F)c(O)cc4CC[C@H]3[C@@H]1CC[C@@H]2OS(N)(=O)=O | 14.6 | > 92.5 | 15.8 | 97.6 | 0.551 | > 100 | 0.735 | > 100 | 3.15 | > 100 | 1.11 | 37.6 | 6.64 | 60.5 | 0.348 | 27.4 | 16.7 | 79.6 | 10.5 | 78.2 |
| O=C1C(Cl)=C(Sc2nnc3c4ccccc4c4ccccc4c3n2)C(=O)c2ccccc21 |  | 37.4 |  | 29.2 |  | 36.6 |  | 29.5 |  | 90.6 |  | 28.4 |  | 40.9 |  | 11.6 |  | 30 |  | 39.6 |
| Nc1nc2c(ncn2C2CCC(CO)O2)c(=O)n1C(=O)c1ccccc1 (stereo not drawn) |  | > 100 |  | > 100 |  | > 100 |  | > 100 |  | > 100 |  | > 100 |  | > 100 |  | > 100 |  | > 100 |  | > 100 |
| CC1=Nc2ccccc2NC(c2ccoc2)C1 (stereo not drawn) |  | > 100 |  | > 100 |  | > 100 |  | > 100 |  | > 100 |  | > 100 |  | > 100 |  | > 100 |  | > 100 |  | > 100 |
| C=C(C)[C@@H]1CC[C@]2(COCCC#N)CC[C@]3(C)[C@H](CC[C@@H]4[C@@](C)(CCCNCCC#N)[C@H](C(=C)C)CC[C@]43C)[C@@H]12 | 16 | > 50 | 18 | > 50 | 26.4 | > 50 | 13.2 | > 50 | 23.5 | > 50 | 10.7 | > 50 | 8.88 | 18.5 | 8.42 | 16.2 | 19.8 | > 50 | 9.26 | 18 |
| COc1cc2nccc(Oc3ccc(NC(=O)NC4CC4)c(Cl)c3)c2cc1C(N)=O | 14.5 | > 78.5 | 12.2 | > 100 | 17.7 | 62.1 | 9.17 | > 100 | 10.3 | 48 | 5.55 | > 100 | 1.1 | > 43.4 | 40.7 | > 100 | 27 | > 93.7 | 41.3 | > 100 |
| Cc1cc(Cl)cc2c(N=Nc3ccc(S(N)(=O)=O)cc3)c(O)[nH]c12 | > 25 | > 25 | > 25 | > 25 | > 25 | > 25 | > 25 | > 25 | > 25 | > 25 | > 25 | > 25 | > 25 | > 25 | > 25 | > 25 | > 25 | > 25 | > 25 | > 25 |
| CCN(CC)CC(C)(C)C(=O)/C=C/c1cccc(/C=C/C(=O)C(C)(C)CN(CC)CC)c1 |  | 2.35 |  | 1.41 |  | 3.89 |  | 2.38 |  | 1.68 |  | 3.17 |  | 3.38 |  | 3.11 |  | 2.66 |  | 2.75 |
| c1ccc([CH2][Sn]([CH2]c2ccccc2)([O]c2cccc3cccnc23)[O]c2cccc3cccnc23)cc1 | 1.67 | 3.1 | 0.184 | 0.374 | 1.15 | 2.49 | 1.03 | 2.2 | 1.2 | 7.04 | 0.363 | 1.39 | 1.38 | 2.85 | 0.266 | 0.689 | 0.302 | 0.836 | 0.193 | 0.963 |
| C#CCNC(=O)N(CC#C)N=O |  | > 100 |  | > 100 |  | > 100 |  | > 100 |  | > 100 |  | > 100 |  | > 100 |  | > 100 |  | > 100 |  | > 100 |
| COc1ccccc1C1C(Cl)C(=O)N1n1cnc2ccccc2c1=O (stereo not drawn) |  | > 100 |  | > 100 |  | > 100 |  | > 100 |  | > 100 |  | > 100 |  | > 100 |  | > 100 |  | > 100 |  | > 100 |
| CC(C)N1CC2CN(Cc3ccccc3)CC(C1)C2=O |  | > 100 |  | > 100 |  | > 100 |  | > 100 |  | > 100 |  | > 100 |  | > 100 |  | > 100 |  | > 100 |  | > 100 |
| Cn1cc(C2=C(c3ccccc3[N+](=O)[O-])C(=O)NC2=O)c2ccccc21 | 5.58 | 18.6 | 4.88 | 24.5 | 6.88 | > 25 | 1.65 | > 23.4 | 5.64 | 18 | 5.28 | > 20.5 | 4.37 | > 20.3 | 9.55 | > 20.8 | 7.11 | 17.7 | 6.24 | 20.1 |
| CCOC(=O)c1ccc2c(c1)Cc1cc([N+](=O)[O-])ccc1-2 |  | 86.5 |  | 56 |  | > 100 |  | > 100 |  | 88 |  | > 100 |  | 51.2 |  | > 100 |  | > 100 |  | > 100 |
| Cc1ccc(NC(=O)c2ccc(CN3CCN(C)CC3)cc2)cc1Nc1nccc(-c2cccnc2)n1 | 28.1 | 70.6 | 18.6 | 65.3 | 36.1 | > 100 | 24.1 | 72.9 | 25.6 | 71 | 22.3 | 53.8 | 19.6 | 49.9 | 16.5 | 32 | 17.1 | 38.5 | 15.1 | 29.6 |
